PubChem BioAssay AID256 (DTP/NCI, 2004)
“And” between values parts separate entries of the source, which are not always exact repeats. Equal values may be shown once. Toxic doses and inconclusive results are not listed.

Tested on: CD2F1 mice, L1210 leukemia ip, survival T/C
Assay: NCI In Vivo Anticancer Drug Screen. Data for tumor model L1210 Leukemia (intraperitoneal) in CD2F1 (CDF1) mice
Settings: higher = longer survival
Outline: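 Antitumor effect is scored in animals hosting a serially transplanted tumor. Values compare compound-dosed animals against vehicle-only controls as a simple quotient.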

[1] = endpoint: mean survival time, dose: 100.0 mg/kg/injection, schedule: Q01DX001 (ip), vehicle: saline with Tween-80
[2] = endpoint: mean survival time, dose: 400.0 mg/kg/injection, schedule: Q01DX001 (ip), vehicle: saline with Tween-80
[3] = endpoint: mean survival time, dose: 100.0 mg/kg/injection, schedule: Q01DX009 (ip), vehicle: saline
[4] = endpoint: mean survival time, dose: 200.0 mg/kg/injection, schedule: Q01DX009 (ip), vehicle: saline
[5] = endpoint: mean survival time, dose: 100.0 mg/kg/injection, schedule: Q04DX003 (ip), vehicle: saline with Tween-80
[6] = endpoint: mean survival time, dose: 200.0 mg/kg/injection, schedule: Q04DX003 (ip), vehicle: saline with Tween-80
[7] = endpoint: mean survival time, dose: 400.0 mg/kg/injection, schedule: Q04DX003 (ip), vehicle: saline with Tween-80
[8] = endpoint: mean survival time, dose: 100.0 mg/kg/injection, schedule: Q01DX009 (ip), vehicle: saline with Tween-80
[9] = endpoint: mean survival time, dose: 200.0 mg/kg/injection, schedule: Q01DX009 (ip), vehicle: saline with Tween-80
[10] = endpoint: mean survival time, dose: 400.0 mg/kg/injection, schedule: Q01DX009 (ip), vehicle: saline with Tween-80
[11] = endpoint: mean survival time, dose: 100.0 mg/kg/injection, schedule: Q04DX002 (ip), vehicle: saline with Tween-80
[12] = endpoint: mean survival time, dose: 200.0 mg/kg/injection, schedule: Q04DX002 (ip), vehicle: saline with Tween-80
[13] = endpoint: mean survival time, dose: 400.0 mg/kg/injection, schedule: Q04DX002 (ip), vehicle: saline with Tween-80
[14] = endpoint: mean survival time, dose: 100.0 mg/kg/injection, schedule: Q01DX001 (ip), vehicle: saline
[15] = endpoint: mean survival time, dose: 50.0 mg/kg/injection, schedule: Q01DX009 (ip), vehicle: saline
[16] = endpoint: mean survival time, dose: 200.0 mg/kg/injection, schedule: Q01DX001 (ip), vehicle: saline
[17] = endpoint: mean survival time, dose: 400.0 mg/kg/injection, schedule: Q01DX001 (ip), vehicle: saline

## O=C(c1ccccc1)C1CC2(c3ccccc3)C(=O)C1(c1ccccc1)c1c2c2ccccc2c2ccccc12 (configuration not stated)
endpoint: mean survival time, dose: 50.0 mg/kg/injection, schedule: Q01DX001 (ip), vehicle: saline with Tween-80
  T/C: 90 % of control
[1]
  T/C: 86 % of control and 94 % of control
[2]
  T/C: 89 % of control

## COC1OC2COC(c3ccccc3)OC2C(OS(C)(=O)=O)C1OS(C)(=O)=O (configuration not stated)
[1]
  T/C: 103 % of control
endpoint: mean survival time, dose: 200.0 mg/kg/injection, schedule: Q01DX001 (ip), vehicle: saline with Tween-80
  T/C: 105 % of control
[2]
  T/C: 101 % of control

## CC1CC(=O)OC2CC(C)(C)CC(=O)C12 (configuration not stated)
[3]
  T/C: 104 % of control
endpoint: mean survival time, dose: 100.0 mg/kg/injection, schedule: Q04DX003 (ip), vehicle: saline sonified
  T/C: 98 % of control
[4]
  T/C: 106 % of control
endpoint: mean survival time, dose: 200.0 mg/kg/injection, schedule: Q04DX003 (ip), vehicle: saline sonified
  T/C: 95 % of control
endpoint: mean survival time, dose: 400.0 mg/kg/injection, schedule: Q01DX009 (ip), vehicle: saline
  T/C: 104 % of control
endpoint: mean survival time, dose: 400.0 mg/kg/injection, schedule: Q04DX003 (ip), vehicle: saline sonified
  T/C: 95 % of control

## COc1ccc(C(=O)CC(C(=O)O)c2ccc3c(c2)OCO3)cc1OC (configuration not stated)
[5]
  T/C: 101 % of control
[6]
  T/C: 101 % of control
[7]
  T/C: 101 % of control

## Cc1c(N=Nc2ccc(N(C)C)cc2)cc[n+]([O-])c1C
[5]
  T/C: 102 % of control
[6]
  T/C: 110 % of control

## C=CC(=O)CCCC(=O)O
[8]
  T/C: 100 % of control
[9]
  T/C: 102 % of control
[10]
  T/C: 104 % of control

## O=C(NNc1ccccc1)c1ccccc1
endpoint: mean survival time, dose: 12.5 mg/kg/injection, schedule: Q01DX009 (ip), vehicle: Klucel (hydroxypropylcellulose) (HPC)
  T/C: 110 % of control
endpoint: mean survival time, dose: 25.0 mg/kg/injection, schedule: Q01DX009 (ip), vehicle: Klucel (hydroxypropylcellulose) (HPC)
  T/C: 105 % of control
endpoint: mean survival time, dose: 50.0 mg/kg/injection, schedule: Q01DX009 (ip), vehicle: Klucel (hydroxypropylcellulose) (HPC)
  T/C: 106 % of control
endpoint: mean survival time, dose: 75.0 mg/kg/injection, schedule: Q01DX009 (ip), vehicle: saline
  T/C: 96 % of control
[11]
  T/C: 110 % of control
endpoint: mean survival time, dose: 150.0 mg/kg/injection, schedule: Q01DX009 (ip), vehicle: saline
  T/C: 97 % of control
[12]
  T/C: 100 % of control
endpoint: mean survival time, dose: 300.0 mg/kg/injection, schedule: Q01DX009 (ip), vehicle: saline
  T/C: 98 % of control
[13]
  T/C: 110 % of control

## C/C(=C/C(=O)O)C(=O)O.[NH-]C1CCCCC1[NH-].[Pt+2]
endpoint: median survival time, dose: 3.12 mg/kg/injection, schedule: Q04DX003 (ip), vehicle: saline
  T/C: 100 % of control and 107 % of control
endpoint: median survival time, dose: 6.25 mg/kg/injection, schedule: Q04DX003 (ip), vehicle: saline
  T/C: 96 % of control and 109 % of control
endpoint: median survival time, dose: 12.5 mg/kg/injection, schedule: Q04DX003 (ip), vehicle: saline
  T/C: 108 % of control
endpoint: median survival time, dose: 25.0 mg/kg/injection, schedule: Q04DX003 (ip), vehicle: saline
  T/C: 116 % of control and 111 % of control
endpoint: median survival time, dose: 50.0 mg/kg/injection, schedule: Q04DX003 (ip), vehicle: saline
  T/C: 116 % of control and 120 % of control
endpoint: median survival time, dose: 200.0 mg/kg/injection, schedule: Q04DX003 (ip), vehicle: saline
  T/C: 153 % of control and 185 % of control

## CCOC(=O)/C(C#N)=C1/C=CCCC1
endpoint: mean survival time, dose: 75.0 mg/kg/injection, schedule: Q01DX001 (ip), vehicle: saline
  T/C: 97 % of control
endpoint: mean survival time, dose: 150.0 mg/kg/injection, schedule: Q01DX001 (ip), vehicle: saline
  T/C: 104 % of control
endpoint: mean survival time, dose: 300.0 mg/kg/injection, schedule: Q01DX001 (ip), vehicle: saline
  T/C: 97 % of control

## O=C1CCC2(CCC(=O)O2)O1
endpoint: mean survival time, dose: 100.0 mg/kg/injection, schedule: Q04DX003 (ip), vehicle: saline
  T/C: 94 % of control
endpoint: mean survival time, dose: 200.0 mg/kg/injection, schedule: Q04DX003 (ip), vehicle: saline
  T/C: 100 % of control
endpoint: mean survival time, dose: 400.0 mg/kg/injection, schedule: Q04DX003 (ip), vehicle: saline
  T/C: 93 % of control

## O=C(O)CCOc1ccc(F)cc1F
[11]
  T/C: 86 % of control
[12]
  T/C: 90 % of control
[13]
  T/C: 86 % of control

## S=c1nccc[nH]1
[11]
  T/C: 105 % of control

## Oc1cc2c(cc1O)-c1[nH]ncc1CC2
[11]
  T/C: 115 % of control
[12]
  T/C: 103 % of control
[13]
  T/C: 98 % of control

## CC(C)(C)C(=O)CC(=O)C(C)(C)C.CC(C)(C)C(=O)CC(=O)C(C)(C)C.CC(C)(C)C(=O)CC(=O)C(C)(C)C.[Dy]
[5]
  T/C: 97 % of control
[6]
  T/C: 94 % of control
[7]
  T/C: 94 % of control

## OCC1OC(n2cnc3c2NC=N[C@@H]3CO)C(O)C1O (some centres not stated)
endpoint: mean survival time, dose: 12.5 mg/kg/injection, schedule: Q01DX005 (ip), vehicle: water
  T/C: 100 % of control
endpoint: mean survival time, dose: 25.0 mg/kg/injection, schedule: Q01DX005 (ip), vehicle: water
  T/C: 100 % of control
endpoint: mean survival time, dose: 50.0 mg/kg/injection, schedule: Q01DX005 (ip), vehicle: water
  T/C: 104 % of control
endpoint: mean survival time, dose: 100.0 mg/kg/injection, schedule: Q01DX005 (ip), vehicle: water
  T/C: 109 % of control
endpoint: mean survival time, dose: 200.0 mg/kg/injection, schedule: Q01DX005 (ip), vehicle: water
  T/C: 111 % of control

## CCCS(=O)(=O)Nc1ccc(Nc2c3ccccc3nc3ccccc23)c(OC)c1
endpoint: mean survival time, dose: 3.75 mg/kg/injection, schedule: Q01DX009 (ip), vehicle: saline
  T/C: 122 % of control

## CN(C)c1ccc(N2C(N)=NC(N)=NC2(C)C)cc1
endpoint: mean survival time, dose: 25.0 mg/kg/injection, schedule: Q01DX001 (ip), vehicle: saline
  T/C: 101 % of control
endpoint: mean survival time, dose: 50.0 mg/kg/injection, schedule: Q01DX001 (ip), vehicle: saline
  T/C: 101 % of control
[14]
  T/C: 98 % of control

## c1ccc2nc(CCc3ccc4ccccc4n3)ccc2c1
[15]
  T/C: 96 % of control
[3]
  T/C: 100 % of control
[4]
  T/C: 102 % of control

## COC(=O)C(c1ccccc1)C(c1ccccc1)c1ccccc1 (configuration not stated)
[11]
  T/C: 95 % of control
[12]
  T/C: 87 % of control

## COc1ccc(C#N)c([N+](=O)[O-])c1
[5]
  T/C: 95 % of control
[6]
  T/C: 114 % of control

## O=C(O)c1cscc1-c1ccccc1
[5]
  T/C: 104 % of control
[6]
  T/C: 104 % of control
[7]
  T/C: 102 % of control

## O=C1OC(c2ccc(O)cc2)(c2ccc(O)cc2)c2ccccc21
[8]
  T/C: 95 % of control
[5]
  T/C: 107 % of control
[9]
  T/C: 91 % of control
[6]
  T/C: 94 % of control
[10]
  T/C: 89 % of control
[7]
  T/C: 93 % of control

## COc1ccc(C(O)(CC(=O)O)c2ccc(OC)cc2)cc1
[14]
  T/C: 98 % of control
[16]
  T/C: 95 % of control
[17]
  T/C: 97 % of control

## CCC(C)(C[NH-])C[NH-].[Cl][Pt+2][Cl]
endpoint: mean survival time, dose: 1.56 mg/kg/injection, schedule: Q04DX003 (ip), vehicle: saline
  T/C: 114 % of control
endpoint: mean survival time, dose: 3.12 mg/kg/injection, schedule: Q04DX003 (ip), vehicle: saline
  T/C: 118 % of control
endpoint: mean survival time, dose: 6.25 mg/kg/injection, schedule: Q04DX003 (ip), vehicle: saline
  T/C: 124 % of control
endpoint: mean survival time, dose: 12.5 mg/kg/injection, schedule: Q04DX003 (ip), vehicle: saline with Tween-80
  T/C: 285 % of control
endpoint: mean survival time, dose: 25.0 mg/kg/injection, schedule: Q04DX003 (ip), vehicle: saline
  T/C: 312 % of control

## Cc1cc(-c2ccc(N=Nc3c(N)ccc4cc(S(=O)(=O)O)ccc34)c(C)c2)ccc1N=Nc1c(N)ccc2cc(S(=O)(=O)O)ccc12
[15]
  T/C: 101 % of control
[3]
  T/C: 101 % of control

## Cc1cccc(NC(=O)c2cccc(Cl)c2)c1C
[8]
  T/C: 91 % of control
[5]
  T/C: 96 % of control
[9]
  T/C: 96 % of control
[6]
  T/C: 96 % of control
[10]
  T/C: 91 % of control
[7]
  T/C: 96 % of control

## O=P(=O)OP(=O)=O.[O]=[W](=[O])=[O]
[8]
  T/C: 92 % of control
[5]
  T/C: 100 % of control
[6]
  T/C: 100 % of control
[7]
  T/C: 102 % of control

## O=CNc1ccccc1OCc1ccccc1
[14]
  T/C: 100 % of control
[16]
  T/C: 97 % of control
[17]
  T/C: 103 % of control

## CN(C)c1ccn(C2OC(CO)C(O)C2SC(C)(C)C)c(=O)n1 (configuration not stated)
endpoint: median survival time, dose: 12.5 mg/kg/injection, schedule: Q01DX005 (ip), vehicle: saline
  T/C: 100 % of control
endpoint: median survival time, dose: 25.0 mg/kg/injection, schedule: Q01DX005 (ip), vehicle: saline
  T/C: 99 % of control
endpoint: median survival time, dose: 50.0 mg/kg/injection, schedule: Q01DX005 (ip), vehicle: saline
  T/C: 97 % of control
endpoint: median survival time, dose: 100.0 mg/kg/injection, schedule: Q01DX005 (ip), vehicle: saline
  T/C: 104 % of control
endpoint: median survival time, dose: 200.0 mg/kg/injection, schedule: Q01DX005 (ip), vehicle: saline
  T/C: 96 % of control

## CCOC(=O)CC(=O)c1[nH]c(C)c(C(=O)OCC)c1C
[5]
  T/C: 101 % of control
[6]
  T/C: 103 % of control
[7]
  T/C: 101 % of control
